Source: patent publication US6534520B2, “Antiviral compounds” (priority 1997, dated 2003)
Values after ≈ are worked out from the molar mass of the structure shown. Read-outs that look alike come from different tables or passages of the source.

What was measured:
[1] = Cytotoxicity run with the Influenza A test; format: cell-based
Protocol: (§1) Methods For Assay Of Cytotoxicity
(§2) In the CPE inhibition test, two wells of uninfected cells treated with each concentration of test Compound are run in parallel with the infected, treated wells. At the time CPE is determined microscopically, the toxicity control cells are also examined microscopically for any changes in cell appearance compared to normal control cells run in the same plate. These changes may be enlargement, granularity, cells with ragged edges, a filmy appearance, rounding, detachment from the surface of the well, or other changes. These changes are given a designation of T (100% toxic), PVH (partially toxic-very heavy-80%), PH (partially toxic-heavy-60%), P (partially toxic-40%), PS (partially toxic-slight-20%), or 0 (no toxicity-0%), conforming to the degree of cytotoxicity seen.
(§3) In the neutral red dye uptake phase of the antiviral test described above, the two toxicity control wells also receive neutral red and the degree of color intensity is determined spectrophotometrically. A neutral red CC50 (NRCC50) is subsequently determined.
(§4) C. ^3H Thymidine Uptake Assay
(§5) Flat bottom 96 well plates are plated with 5X10E3 Vero-34 cells/well and 1X10E4 Hs68 or Wi-38 cells/well respectively and incubated overnight at 37° C. and 5% CO2/air. After incubation, the supernatant medium is removed and replaced with test Compound dilutions in 2% DMEM (150 ul). The cells are then incubated 48 hours in a 5% CO2 incubator at 37° C.
(§6) 50 μl/well of 10 uCi/ml solution of [3H]-methyl thymidine (specific activity of approx. 2Ci/mmol) is added to the culture medium and incubated overnight (18 hours) in a 5% CO2 incubator at 37° C.
(§7) Cells are then collected onto a fiberglass filter (Printed Filtermat A 1450-421 Wallac) with a Tomtec cell harvester. Suspended cells are collected directly onto filter while for adherent cells, the medium is first removed, then the cells washed with PBS and trypsinized for 2-3 minutes (50 μl trypsin/well) before collecting.
(§8) Filters are dried for 1 hour at 37-40° C. and then placed into bags (1450-microbeta #1450-432 Wallac) with 4.5 ml of Betascint and counts obtained with Microbeta 1450 Wallac (protocol 1).
(§9) The percent of cell proliferation is determined by comparison to the control (no test Compound) and thereby establishing 50% inhibitory concentration is established.

[2] = Cytotoxicity run with the Rhinovirus test
[3] = tested on: HIVTEKI; test: Anti-HIV activity against HIVTEKI in PBMCs; settings: Human immunodeficiency virus 1, PBMC, read-out: HIVTEKI (PBMCs) IC50
[4] = Cytotoxicity in PBMCs (anti-HIV tests); format: cell-based; settings: human; PBMCs, HIVROJO
[5] = tested on: Rhinovirus (RV); test: Antiviral activity against Rhinovirus (CPE inhibition / neutral red); format: cell-based; settings: for IC50: Enterovirus, read-out: RV IC50
[6] = tested on: Adenovirus; test: Antiviral activity against Adenovirus (CPE inhibition / neutral red); format: cell-based
[7] = Cytotoxicity run with the RSV test
[8] = tested on: Respiratory Syncitial Virus (RSV); test: Antiviral activity against RSV (CPE inhibition / neutral red); format: cell-based
[9] = tested on: Influenza A; test: microbe, parasite or virus in culture; format: cell-based; settings: for IC50: Influenza A virus, read-out: INFLUENZA A IC50
[10] = tested on: Parainfluenza; test: Antiviral activity against Parainfluenza (CPE inhibition / neutral red); format: cell-based
[11] = Cytotoxicity run with the Adenovirus test
[12] = Cytotoxicity run with the Influenza B test; format: cell-based
Protocol: as §1, §2, §3, §4, §5, §6, §7, §8, §9

[13] = tested on: Influenza B; test: microbe, parasite or virus in culture; format: cell-based; settings: for IC50: Influenza B virus
[14] = Cytotoxicity run with the Parainfluenza test
[15] = tested on: HIVROJO; test: Anti-HIV activity against HIVROJO in PBMCs; format: cell-based; settings: for IC50: Human immunodeficiency virus 1, PBMC, read-out: HIVROJO (PBMCs) IC50
[16] = Cytotoxicity run with the HSV-1 test
[17] = tested on: HSV-1; test: Antiviral activity against HSV-1 (CPE inhibition / neutral red); format: cell-based, herpes simplex virus type 1
[18] = Cytotoxicity run with the HSV-2 test
[19] = tested on: HSV-2; test: Antiviral activity against HSV-2 (CPE inhibition / neutral red); format: cell-based, herpes simplex virus type 2
[20] = tested on: uninfected cells; test: Cytotoxicity run with the Influenza A test; format: cell-based
Protocol: as §1, §2, §3, §4, §5, §6, §7, §8, §9

[21] = tested on: PBMCs; test: Cytotoxicity in PBMCs (anti-HIV tests); format: cell-based
[22] = tested on: uninfected cells
[23] = tested on: uninfected cells; test: Cytotoxicity run with the Adenovirus test; settings: cytotoxicity, Adenovirus test
[24] = tested on: uninfected cells; test: Cytotoxicity run with the Influenza B test; format: cell-based
Protocol: as §1, §2, §3, §4, §5, §6, §7, §8, §9

[25] = tested on: uninfected cells; remark: listed apart in the source
[26] = tested on: uninfected cells; test: Cytotoxicity run with the Parainfluenza test; settings: cytotoxicity, Parainfluenza test
[27] = tested on: uninfected cells; remark: listed apart in the source
[28] = tested on: uninfected cells; remark: listed apart in the source
[29] = unidentified adenovirus; read-out: ADENOVIRUS IC50
[30] = human respiratory syncytial virus; read-out: RSV IC50
[31] = Human alphaherpesvirus 1; read-out: HSV-1 IC50

SMILES	CC50 [1] [µg/mL]	CC50 [2] [µg/mL]	IC50 [3] [µg/mL]	CC50 [4] [µg/mL]	IC50 ([5]; Rhinovirus) [µg/mL]	IC50 [6, 29] [µg/mL]	CC50 [7] [µg/mL]	IC50 [8, 30] [µg/mL]	IC50 [9] [µg/mL]	IC50 [10] [µg/mL]	CC50 [11] [µg/mL]	CC50 [12] [µg/mL]	IC50 [13] [µg/mL]	CC50 [14] [µg/mL]	IC50 ([15]; HIVROJO, PBMCs) [µg/mL]	CC50 [16] [µg/mL]	IC50 [17, 31] [µg/mL]	further results
C=Cc1cncc2ccc(C(=O)NCc3ccccc3OC(C)C)nc12 [#63, 8-(vinyl)-[1,6]Naphthyridine-2-carboxylic acid 2-isopropoxybenzylamine]	5.6 (≈ 16.1 µM)	9 (≈ 25.9 µM)	4.9 (≈ 14.1 µM)	7 (≈ 20.1 µM)	2 (≈ 5.76 µM)	9 (≈ 25.9 µM)	5 (≈ 14.4 µM)	12 (≈ 34.5 µM)	5.6 (≈ 16.1 µM)	10 (≈ 28.8 µM)	7 (≈ 20.1 µM)	2.4 (≈ 6.91 µM)	5.2 (≈ 15 µM)	8 (≈ 23 µM)	0.7 (≈ 2.01 µM)			
Cc1cncc2ccc(C(=O)NCc3ccccc3OC(C)C)nc12 [#64, 8-(methyl)-[1,6]Naphthyridine-2-carboxylic acid 2-isopropoxybenzylamine]	2.4 (≈ 7.16 µM)	16 (≈ 47.7 µM)	0.8 (≈ 2.39 µM)	4.3 (≈ 12.8 µM)	> 0.08	3 (≈ 8.94 µM)	0.6 (≈ 1.79 µM)	0.6 (≈ 1.79 µM)	2.4 (≈ 7.16 µM)	1 (≈ 2.98 µM)	1 (≈ 2.98 µM)	1.8 (≈ 5.37 µM)	1.8 (≈ 5.37 µM)	1 (≈ 2.98 µM)	0.28 (≈ 0.835 µM)	3.5 (≈ 10.4 µM)	2 (≈ 5.96 µM)	
C[C@@H](NC(=O)c1ccc2cncc(Br)c2n1)c1ccccc1 [#66, 8-Bromo-[1,6]naphthyridine-2-carboxylic acid (1-phenyl-ethyl)-amide]	24 (≈ 67.4 µM)	3 (≈ 8.42 µM)	2.2 (≈ 6.18 µM)	27.3 (≈ 76.6 µM)			5 (≈ 14 µM)		56 (≈ 157 µM)	83 (≈ 233 µM)	8 (≈ 22.5 µM)	18 (≈ 50.5 µM)	18 (≈ 50.5 µM)	10 (≈ 28.1 µM)		20 (≈ 56.1 µM)		IC50 ([17]; Human alphaherpesvirus 1, read-out: HSV-1 IC50): 1 µg/mL (≈ 2.81 µM); IC50 [5]: 0.3 µg/mL (≈ 0.842 µM); IC50 ([6]; unidentified adenovirus, read-out: ADENOVIRUS IC50): 9 µg/mL (≈ 25.3 µM); IC50 ([8]; human respiratory syncytial virus, read-out: RSV IC50): 4 µg/mL (≈ 11.2 µM); IC50 [15]: 1.4 µg/mL (≈ 3.93 µM)
O=C(NCCc1ccccc1)C1=Cc2ccncc2CC1 [#67, 7,8-Dihydro-isoquinoline-6-carboxylic acid phenethyl-amide]	> 100	40 (≈ 144 µM)	41.2 (≈ 148 µM)	74.7 (≈ 268 µM)	> 20	> 100	30 (≈ 108 µM)	> 100	> 100	100 (≈ 359 µM)	30 (≈ 108 µM)	> 100	> 100	30 (≈ 108 µM)	8.6 (≈ 30.9 µM)	> 100	16 (≈ 57.5 µM)	CC50 [18]: > 100 µg/mL; IC50 ([19]; Human alphaherpesvirus 2): 86 µg/mL (≈ 309 µM)
O=C(NCCc1c[nH]c2ccccc12)C1=Cc2ccncc2CC1 [#68]																		INFLUENZA A CC50 [20]: 2.1 µg/mL; HIVROJO (PBMCs) CC50 [21]: 7.1 µg/mL; HSV-1 IC50 ([17]; HSV-1): 0.72 µg/mL; RV IC50 ([5]; Rhinovirus): 2 µg/mL; HSV-2 IC50 ([19]; HSV-2): 0.96 µg/mL; ADENOVIRUS IC50 ([6]; Adenovirus): 20 µg/mL; HSV-1 CC50 [22]: 12 µg/mL; RSV IC50 ([8]; RSV): 60 µg/mL; INFLUENZA A IC50 [9]: 2.1 µg/mL; PARAINFLUENZA IC50 ([10]; Parainfluenza): 50 µg/mL; ADENOVIRUS CC50 [23]: 30 µg/mL; INFLUENZA B CC50 [24]: 11 µg/mL; RSV CC50 [25]: 20 µg/mL; INFLUENZA B IC50 ([13]; Influenza B): 7.2 µg/mL; PARAINFLUENZA CC50 [26]: 25 µg/mL; HIVROJO (PBMCs) IC50 ([15]; HIVROJO, PBMCs): 2.9 µg/mL; HSV-2 CC50 [27]: 14 µg/mL; RV CC50 [28]: 10 µg/mL
